Laboratory results taken from patent US12509459B2, “Inhibitors of NLRP3 inflammasome” (BioAge Labs, Inc., priority 2024, dated 2025).

Target: NLRP3 (Homo sapiens, UniProt Q96P20)
Test: THP-1 cell-based NLRP3 activation assay
Parameters: endogenous in cells; host or cells: THP-1 cells (PMA-differentiated, LPS-primed, nigericin-stimulated)
Conditions: PMA-differentiated THP-1 cells, LPS 100 ng/mL then 10 μM nigericin
Method: THP-1 cells are cultured in complete media (CM) until they reach logarithmic growth and achieve a viability >90%. CM is composed of RPMI-1640 (+Glutamax)/10% fetal bovine serum/55 μM β-mercaptoethanol/pen/strep. Cells are spun down and resuspended to 1,000,000 cells/mL in CM containing either 20 nM or 500 nM PMA. 150,000 cells (150 μL) are then added to each well of a 96-well TC plate and incubated for either 24 hr or 3 hr, respectively, in a standard cell culture incubator (37° C.; 5% CO2). After this incubation, the plate is tilted and media carefully removed. 200 μL of CM containing 100 ng/mL LPS is then added to the wells and the cells incubated an additional 3 hrs. The media is again removed and replaced with Opti-Mem medium containing pre-determined dilutions of test compounds in replicate wells. After a 30 min incubation, 10 μM nigericin (final concentration) in Opti-Mem medium with the corresponding concentration of compound is added to the wells for an additional 1 hr. Positive control wells contain 10 μM nigericin in Opti-Mem in the absence of test compound, while negative control wells contain Opti-Mem only. […] Once supernatants are removed, the relative viability of adherent cells in the 96-well TC plate are determined using a CellTiter-Glo® luminescent cell viability assay (Promega).

NLRP3, sequence (Q96P20 whole entry): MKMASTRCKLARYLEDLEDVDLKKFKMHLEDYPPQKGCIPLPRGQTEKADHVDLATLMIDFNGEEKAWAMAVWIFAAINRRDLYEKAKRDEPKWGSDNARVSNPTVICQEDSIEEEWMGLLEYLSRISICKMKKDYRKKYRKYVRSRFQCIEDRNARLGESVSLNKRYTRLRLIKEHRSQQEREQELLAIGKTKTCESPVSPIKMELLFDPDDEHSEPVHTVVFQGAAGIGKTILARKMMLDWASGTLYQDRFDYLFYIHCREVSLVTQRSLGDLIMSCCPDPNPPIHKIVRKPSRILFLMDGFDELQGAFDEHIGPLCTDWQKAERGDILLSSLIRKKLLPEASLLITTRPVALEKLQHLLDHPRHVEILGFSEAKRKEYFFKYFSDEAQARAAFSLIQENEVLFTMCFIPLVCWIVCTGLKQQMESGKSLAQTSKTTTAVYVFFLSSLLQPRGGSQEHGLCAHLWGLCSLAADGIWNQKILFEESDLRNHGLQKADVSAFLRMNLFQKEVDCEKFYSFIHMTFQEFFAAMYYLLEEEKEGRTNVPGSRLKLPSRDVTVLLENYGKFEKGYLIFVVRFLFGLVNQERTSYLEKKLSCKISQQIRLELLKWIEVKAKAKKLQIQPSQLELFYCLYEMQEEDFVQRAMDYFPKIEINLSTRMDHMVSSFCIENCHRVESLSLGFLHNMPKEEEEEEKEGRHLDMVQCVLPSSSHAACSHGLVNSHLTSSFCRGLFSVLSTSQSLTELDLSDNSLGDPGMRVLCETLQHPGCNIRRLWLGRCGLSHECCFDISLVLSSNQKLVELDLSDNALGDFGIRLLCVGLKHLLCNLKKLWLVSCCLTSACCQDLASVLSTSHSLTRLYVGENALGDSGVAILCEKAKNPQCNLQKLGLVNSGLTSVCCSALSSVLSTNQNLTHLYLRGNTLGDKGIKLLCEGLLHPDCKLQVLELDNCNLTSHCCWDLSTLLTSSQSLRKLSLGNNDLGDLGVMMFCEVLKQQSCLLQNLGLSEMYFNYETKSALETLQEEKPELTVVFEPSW

SMILES: CCOc1cc(C(=O)N(C)[C@@H](c2cncc3cn[nH]c23)[C@@H]2CCN(C)C2)ccc1-c1ccccc1 [Compound 160]
- IC50: < 100 nM

SMILES: CCOc1cc(C(=O)N(C)C(CN(CC)CC)c2cccc3cn[nH]c23)ccc1-c1cccc(F)c1 (stereo not drawn) [Compound 261]
- IC50: < 100 nM

SMILES: CCOc1cc(C(=O)N(C)[C@@H](c2cncc3cn[nH]c23)C2CNC2)ccc1-c1cccc(F)c1 [Compound 097]
- IC50: < 100 nM

SMILES: CCOc1cc(C(=O)N(C)[C@H](CCNC)c2cccc3cn[nH]c23)ccc1-c1cccc(F)c1 [Compound 197]
- IC50: < 100 nM

SMILES: CCOc1cc(C(=O)N(CCO)Cc2cnc(N)c3cn[nH]c23)ccc1-c1cccc(C#N)c1 [Compound 043]
- IC50: 100 to 500 nM

SMILES: CCOc1cc(C(=O)N(C)[C@H](c2cncc3cn[nH]c23)C2CNC2)ccc1-c1cccc(F)c1 [Compound 092]
- IC50: 100 to 500 nM

SMILES: CCOc1cc(C(=O)N(C)[C@H](CC[N+](C)(C)[O-])c2cncc3cn[nH]c23)ccc1-c1ccccc1 [Compound 166]
- IC50: < 100 nM

SMILES: CN(C(=O)c1ccc(-c2cccc(Cl)c2)c(OC2CC2)c1)[C@@H](CCO)c1cncc2cn[nH]c12 [Compound 012]
- IC50: 100 to 500 nM

SMILES: CCOc1cc(C(=O)N(C)[C@H](CCNC)c2cncc3cn[nH]c23)ccc1-c1cccc(Cl)c1 [Compound 228]
- IC50: < 100 nM

SMILES: CN(C)CC[C@H](c1cncc2cn[nH]c12)N(C)C(=O)c1ccc(-c2cccc(C#N)c2)c(OC2CC2)c1 [Compound 149]
- IC50: < 100 nM

SMILES: CCOc1cc(C(=O)N(C)[C@H](CCNCCF)c2cncc3cn[nH]c23)ccc1-c1cccc(F)c1 [Compound 063]
- IC50: < 100 nM

SMILES: CCOc1cc(C(=O)N(C)[C@H](CCN2C[C@@H](F)[C@H](F)C2)c2cncc3cn[nH]c23)ccc1-c1cccc(F)c1 [Compound 093]
- IC50: < 100 nM

SMILES: CCOc1cc(C(=O)N(C)[C@@H](c2cncc3cn[nH]c23)C2CN(C)C2)ccc1-c1cccc(C#N)c1 [Compound 143]
- IC50: < 100 nM

SMILES: CCOc1cc(C(=O)N(C)[C@H](CC[N+](C)(C)[O-])c2cncc3cn[nH]c23)ccc1-c1cccc(F)c1 [Compound 145]
- IC50: 1000 to 15000 nM

SMILES: CCOc1cc(C(=O)N(C)[C@H](CC[N+]([O-])(CC)CC)c2cncc3cn[nH]c23)ccc1-c1cccc(Cl)c1 [Compound 255]
- IC50: < 100 nM

SMILES: CCOc1cc(C(=O)N(CCO)Cc2cncc3cn[nH]c23)ccc1-c1cccc(Cl)c1 [Compound 042]
- IC50: < 100 nM

SMILES: CCOc1cc(C(=O)N(C)[C@H](CO)c2cnc(C)c3cn[nH]c23)ccc1-c1cc(F)cc(F)c1 [Compound 018]
- IC50: < 100 nM

SMILES: CCOc1cc(C(=S)N(C)[C@H](CCN(C)C)c2cncc3cn[nH]c23)ccc1-c1cccc(F)c1 [Compound 224]
- IC50: < 100 nM

SMILES: CCOc1cc(C(=O)N(C)[C@H](CO)c2cncc3cn[nH]c23)ccc1-c1cccc(Cl)c1 [Compound 004]
- IC50: < 100 nM

SMILES: CCOc1cc(C(=O)N(C)[C@H](CCN(C)C)c2cncc3cn[nH]c23)ccc1C(C)CC (stereo partly drawn) [Compound 161]
- IC50: < 100 nM

SMILES: CCOc1cc(C(=O)N(C)[C@@H](c2cncc3cn[nH]c23)C2CN(CC)C2)ccc1-c1cccc(Cl)c1 [Compound 172]
- IC50: < 100 nM

SMILES: CCOc1cc(C(=O)N(C)[C@@H](CCN(C)C)c2ccc(C)c3cn[nH]c23)ccc1-c1cccc(F)c1 [Compound 201]
- IC50: 100 to 500 nM

SMILES: CCOc1cc(C(=O)N(C)[C@H](CO)c2cnc(CC)c3cn[nH]c23)ccc1-c1cc(C)cc(F)c1 [Compound 032]
- IC50: 100 to 500 nM

SMILES: CCOc1cc(C(=O)N(C)[C@H](CCN(C)C)c2cncc3cn[nH]c23)ccc1-c1cc(F)cc(C#N)c1 [Compound 279]
- IC50: < 100 nM

SMILES: CCOc1cc(C(=O)N(C)[C@@H](c2cncc3cn[nH]c23)[C@@H]2CCNC2)ccc1-c1ccccc1 [Compound 159]
- IC50: < 100 nM

SMILES: CCOc1cc(C(=O)N(Cc2cnc(C)c3cn[nH]c23)[C@H]2CC[C@@H]2O)ccc1-c1cccc(F)c1 [Compound 056]
- IC50: < 100 nM

SMILES: CCOc1cc(C(=O)N(Cc2cnc(C)c3cn[nH]c23)C2CC2O)ccc1-c1cccc(F)c1 (stereo not drawn) [Compound 045]
- IC50: < 100 nM

SMILES: CCOc1cc(C(=O)N(Cc2cccc3cn[nH]c23)[C@H]2C[C@@H](N)C2)ccc1-c1cccc(C#N)c1 [Compound 292]
- IC50: < 100 nM

SMILES: CN(C(=O)c1ccc(-c2cccc(F)c2)c(OC2CC2)c1)[C@H](CC[N+](C)(C)[O-])c1cncc2cn[nH]c12 [Compound 165]
- IC50: < 100 nM

SMILES: CCOc1cc(C(=O)N(CCO)Cc2cnc(NC)c3cn[nH]c23)ccc1-c1cccc(C#N)c1 [Compound 044]
- IC50: 100 to 500 nM

SMILES: CCOc1cc(C(=O)N(Cc2cncc3cn[nH]c23)C2CC(N(C)C)C2)ccc1-c1cccc(F)c1 (stereo not drawn) [Compound 240]
- IC50: 500 to 1000 nM

SMILES: C=CC(=O)NCC[C@H](c1cncc2cn[nH]c12)N(C)C(=O)c1ccc(-c2cccc(F)c2)c(OCC)c1 [Compound 080]
- IC50: < 100 nM

SMILES: CCOc1cc(C(=O)N(C)[C@H](CN(C)C)c2cncc3cn[nH]c23)ccc1C(C)C [Compound 208]
- IC50: 1000 to 15000 nM

SMILES: CCOc1cc(CN(CCN2CCOCC2)Cc2cncc3cn[nH]c23)ccc1-c1cccc(F)c1 [Compound 118]
- IC50: 100 to 500 nM

SMILES: CCOc1cc(C(=O)N(Cc2cccc3cn[nH]c23)[C@H]2C[C@@H](NC)C2)ccc1-c1cccc(F)c1 [Compound 252]
- IC50: < 100 nM

SMILES: CCOc1cc(C(=O)N(C)[C@H](CN(C)C)c2cnc(CO)c3cn[nH]c23)ccc1-c1cccc(F)c1 [Compound 188]
- IC50: < 100 nM

SMILES: CCOc1cc(C(=O)N(C)[C@H](CCN(C)C)c2cccc3cn[nH]c23)ccc1-c1ccccc1 [Compound 194]
- IC50: < 100 nM

SMILES: CCOc1cc(C(=O)N(C)[C@@H](c2cncc3cn[nH]c23)C2CN(C)C2)ccc1-c1cccc(Cl)c1 [Compound 183]
- IC50: < 100 nM

SMILES: CCOc1cc(C(=O)N(C)[C@H](C[C@H](C)O)c2cncc3cn[nH]c23)ccc1-c1cccc(Cl)c1 [Compound 008]
- IC50: 1000 to 15000 nM

SMILES: CCOc1cc(C(=O)N(CCN2CCCCC2)Cc2cncc3cn[nH]c23)ccc1-c1cccc(F)c1 [Compound 117]
- IC50: < 100 nM

SMILES: CCOc1cc(C(=O)N(CCN2CCC(F)C2)Cc2cncc3cn[nH]c23)ccc1-c1cccc(F)c1 (stereo not drawn) [Compound 109]
- IC50: < 100 nM

SMILES: CCc1ncc([C@@H](CO)N(C)C(=O)c2ccc(-c3cc(F)cc(F)c3)c(OC3CC3)c2)c2[nH]ncc12 [Compound 035]
- IC50: < 100 nM

SMILES: CCOc1cc(C(=O)N(C)[C@@H](CN(C)C)c2cncc3cn[nH]c23)ccc1-c1cccc(Cl)c1 [Compound 126]
- IC50: < 100 nM

SMILES: CCOc1cc(C(=O)N(C)[C@H](CO)c2cnc(C)c3cn[nH]c23)ccc1-c1cccc(Cl)c1 [Compound 019]
- IC50: < 100 nM

SMILES: Cc1ncc([C@H](CCO)N(C)C(=O)c2ccc(-c3cccc(F)c3)c(OC3CC3)c2)c2[nH]ncc12 [Compound 031]
- IC50: > 15000 nM

SMILES: CCOc1cc(C(=O)N(C)[C@H](CCNC)c2cccc3cn[nH]c23)ccc1-c1cccc(Cl)c1 [Compound 233]
- IC50: < 100 nM

SMILES: CCOc1cc(C(=O)N(C)[C@H](c2cncc3cn[nH]c23)C2CNC2)ccc1-c1ccccc1 [Compound 151]
- IC50: < 100 nM

SMILES: CCOc1cc(C(=O)N(C)[C@H](CC[N+](C)(C)[O-])c2cncc3cn[nH]c23)ccc1-c1cccc(Cl)c1 [Compound 163]
- IC50: < 100 nM

SMILES: CCOc1cc(C(=O)N(C)[C@H](CN(CC)CC)c2cncc3cn[nH]c23)ccc1-c1cccc(F)c1 [Compound 127]
- IC50: < 100 nM

SMILES: CCOc1cc(C(=O)N(C)[C@@H](CN(C)C)c2cccc3cn[nH]c23)ccc1-c1cccc(Cl)c1 [Compound 221]
- IC50: < 100 nM

SMILES: CCOc1cc(C(=O)N(C)[C@H](CCC2CN(C)C2)c2cccc3cn[nH]c23)ccc1-c1cccc(F)c1 [Compound 297]
- IC50: 100 to 500 nM

SMILES: CCOc1cc(C(=O)N(C)[C@H](c2cccc3cn[nH]c23)C2CN(C)C2)ccc1-c1cccc(F)c1 [Compound 298]
- IC50: < 100 nM

SMILES: CCOc1cc(C(=O)N(Cc2cncc3cn[nH]c23)[C@H]2C[C@@H](CN(C)C)C2)ccc1-c1cccc(F)c1 [Compound 249]
- IC50: < 100 nM

SMILES: CCOc1cc(C(=O)N(C)[C@H](CO)c2cncc3cn[nH]c23)ccc1-c1cc(C)cc(F)c1 [Compound 003]
- IC50: < 100 nM

SMILES: CCOc1cc(C(=O)N(C)[C@H](CO)c2cnc(C)c3cn[nH]c23)ccc1-c1ccccc1 [Compound 020]
- IC50: 100 to 500 nM

SMILES: CCOc1cc(C(=O)N(C)[C@H](c2cncc3cn[nH]c23)C2CN(C)C2)ccc1-c1cccc(Cl)c1 [Compound 148]
- IC50: < 100 nM

SMILES: CCOc1cc(C(=O)N(C)[C@@H](c2cncc3cn[nH]c23)C2CN(CC)C2)ccc1-c1ccccc1 [Compound 177]
- IC50: < 100 nM

SMILES: CCOc1cc(C(=O)N(C)[C@H](CCN(C)C)c2cncc3cn[nH]c23)ccc1C1CCCC1 [Compound 157]
- IC50: < 100 nM

SMILES: CCOc1cc(C(=O)N(C)[C@H](CN(C)C)c2cncc3cn[nH]c23)ccc1-c1cccc(F)c1 [Compound 121]
- IC50: < 100 nM

SMILES: CCOc1cc(C(=O)N(C)[C@H](c2cncc3cn[nH]c23)C2CNC2)ccc1-c1cccc(Cl)c1 [Compound 182]
- IC50: < 100 nM

SMILES: CCOc1cc(C(=O)N(C)C(CN2CC(O)C2)c2cncc3cn[nH]c23)ccc1-c1cccc(F)c1 (stereo not drawn) [Compound 246]
- IC50: < 100 nM

SMILES: CCOc1cc(C(=O)N(C)[C@H](c2cncc3cn[nH]c23)C2CN(CC)C2)ccc1-c1ccccc1 [Compound 134]
- IC50: 1000 to 15000 nM

SMILES: CCOc1cc(C(=O)N(C)[C@@H](c2cncc3cn[nH]c23)C2CNC2)ccc1-c1ccccc1 [Compound 150]
- IC50: 1000 to 15000 nM
